Source: article PMC4661079 (Bioorganic & medicinal chemistry, 2015)

Tests used:
TAK1 = target: T1, TAK1 (Homo sapiens, UniProt O43318); assay: in vitro TAK1 inhibition assay; type: biochemical; conditions: for TAK1 inhibitory activity, result in words: in vitro TAK1 inhibition
T1 sequence (O43318 1-303 limits assumed): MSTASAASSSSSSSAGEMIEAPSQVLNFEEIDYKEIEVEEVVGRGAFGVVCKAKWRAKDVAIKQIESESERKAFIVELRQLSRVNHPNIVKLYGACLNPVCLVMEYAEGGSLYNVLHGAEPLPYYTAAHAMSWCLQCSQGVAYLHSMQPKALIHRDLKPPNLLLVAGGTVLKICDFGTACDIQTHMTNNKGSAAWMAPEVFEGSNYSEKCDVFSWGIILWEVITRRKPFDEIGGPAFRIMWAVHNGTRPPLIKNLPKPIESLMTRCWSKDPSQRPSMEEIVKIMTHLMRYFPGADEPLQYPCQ
T1 sequence (Q15750 437-504 partner limits assumed): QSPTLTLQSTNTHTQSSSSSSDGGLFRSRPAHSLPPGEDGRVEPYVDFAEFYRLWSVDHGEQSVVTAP

85 kinases = conditions: 1 μM concentration; ref 14 (Wu et al.); cited from earlier work

SMILES | TAK1 inhibitory activity, result in words (TAK1) | also measured
CC=C/C=C\C(=O)[C@@H](O)[C@@H](O)C/C=C/c1cc(OC)cc(OC)c1C(=O)OC (stereo in doubt) [Compound 10, Methyl 2-((1E,4S,5S,7Z,9Z)-4,5-dihydroxy-6-oxoundeca-1,7,9-trien-1-yl)-4,6-dimethoxybenzoate] | inability | –
COc1cc(O)c2c(c1)/C=C/C[C@@H]1OC(C)(C)O[C@@H]1C(=O)/C=C\C[C@H](C)OC2=O [Compound 16, (3aS,5Z,8S,15E,17aS)-11-Hydroxy-13-methoxy-2,2,8-trimethyl-7,8,17,17a-tetrahydro-4H-benzo[c][1,3]dioxolo[4,5-h][1]oxacyclotetradecine-4,10(3aH)-dione] | – | reduction of TAK1 inhibitory activity relative to 1 (TAK1; compared with 1): more than 30 fold
COc1cc(O)c2c(c1)/C=C/C[C@H](O)[C@H](O)C(=O)/C=C\C[C@H](C)OC2=O [Compound 1, (5Z)-7-oxozeaenol] | – | number of kinases with at least 50% inhibition out of 85 kinases tested (85 kinases): 12
COc1cc(O)c2c(c1Br)/C=C/C[C@H](O)[C@H](O)C(=O)/C=C\C[C@H](C)OC2=O [Compound 13, (3S,5Z,8S,9S,11E)-13-Bromo-8,9,16-trihydroxy-14-methoxy-3-methyl-3,4,9,10-tetrahydro-1H-benzo[c][1]oxacyclotetradecine-1,7(8H)-dione] | – | times less active than difluoro derivative 11 (TAK1; TAK1 inhibition, compared with 11): 5 times
COc1cc(O)cc2c1C(=O)O[C@@H](C)CCCCC/C=C/C(=O)C2 [Compound 8, greensborone C] | diminished activity | –
COc1cc(O)c2c(c1)/C=C/C[C@H](O)[C@H](O)[C@@H](O)/C=C/C[C@H](C)OC2=O [Compound 3, zeaenol] | loss of activity | –
COc1cc(O)c2c(c1)/C=C/C[C@H](O)[C@H](O)C(=O)CCC[C@H](C)OC2=O [Compound 7, LL-Z164-1] | loss of activity | –
COc1cc(O)c2c(c1)[C@H]1O[C@@H]1C[C@H](O)[C@H](O)C(=O)CCC[C@H](C)OC2=O [Compound 5, dihydrohypothemycin] | loss of activity | –

Further lines, with some results ahead:

TAK1 inhibitory activity, result in words (TAK1) | SMILES | also measured
least active | COc1c(Br)c(O)c2c(c1Br)/C=C/C[C@H](O)[C@H](O)C(=O)/C=C\C[C@H](C)OC2=O [Compound 14, (3S,5Z,8S,9S,11E)-13,15-Dibromo-8,9,16-trihydroxy-14methoxy-3-methyl-3,4,9,10-tetrahydro-1H-benzo[c][1]oxacyclotetradecine-1,7(8H)-dione] | –
statistically equipotent to 1 | COC1=CC(=O)C2=C(/C=C/C[C@H](O)[C@H](O)C(=O)/C=C\C[C@H](C)OC2=O)C1(F)F [Compound 11, (3S,5Z,8S,9S,11E)-13,13-Difluoro-8,9-dihydroxy-14-methoxy-3-methyl-3,4,9,10-tetrahydro-1H benzo[c][1]oxacyclotetradecine-1,7,16(8H,13H)-trione] | IC50 (TAK1): 0.077 µM
significantly less active | COc1cc2c(c(O)c1Br)C(=O)O[C@@H](C)C/C=C\C(=O)[C@@H](O)[C@@H](O)C/C=C/2 [Compound 12, (3S,5Z,8S,9S,11E)-15-Bromo-8,9,16-trihydroxy-14-methoxy-3-methyl-3,4,9,10-tetrahydro-1H-benzo[c][1]oxacyclotetradecine-1,7(8H)-dione] | –
